Assays:
Assay in all cases: relative viability (nuclei count vs DMSO), 5 days (fraction); higher = more cells survive
[1] = system: NCI-H1666
Procedure, shortened: (§1)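 Each reported value is a median over duplicate plates. It expresses relative viability: treated-well nuclei count divided by vehicle-well nuclei count. Lung cancer cell lines in 1536-well plates were dosed by pin tool a day after seeding, alone with one drug or with a fixed anchor-drug dose plus five library-drug doses (not always all listed) in √10 steps, and nuclei were counted after 5 days.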

[2] = system: NCI-H441
Procedure, shortened: as §1

[3] = system: LK-2
Procedure, shortened: as §1

[4] = system: EKVX
Procedure, shortened: as §1

[5] = system: NCI-H1755
Procedure, shortened: as §1

[6] = system: NCI-H23
Procedure, shortened: as §1

[7] = system: SK-MES-1
Procedure, shortened: as §1

[8] = system: NCI-H596
Procedure, shortened: as §1

[9] = system: SW 900
Procedure, shortened: as §1

[10] = system: NCI-H1975
Procedure, shortened: as §1

[11] = system: PC-3 [JPC-3]
Procedure, shortened: as §1

[12] = system: EMC-BAC-2
Procedure, shortened: as §1

[13] = system: NCI-H1563
Procedure, shortened: as §1

[14] = system: ChaGo-K-1
Procedure, shortened: as §1

[15] = system: H3255
Procedure, shortened: as §1

[16] = system: LOU-NH91
Procedure, shortened: as §1

[17] = system: NCI-H520
Procedure, shortened: as §1

[18] = system: A-427
Procedure, shortened: as §1

[19] = system: COR-L 105
Procedure, shortened: as §1

[20] = system: NCI-H1734
Procedure, shortened: as §1

[21] = system: NCI-H2170
Procedure, shortened: as §1

For `O=c1cc(N2CCOCC2)oc2c(-c3cccc4c3sc3ccccc34)cccc12` + CCNC(=O)c1noc(-c2cc(C(C)C)c(O)cc2O)c1-c1ccc(CN2CCOCC2)cc1 [Luminespib] (partner 0.01 µM), the relative viability ([1]; first compound 0.01 µM) was 0.889, the relative viability ([1]; first compound 0.03162 µM) was 1.01 and the relative viability ([1]; first compound 0.1 µM) was 0.995. It also gave a relative viability ([1]; first compound 0.3162 µM) of 0.969, a relative viability ([1]; first compound 1 µM) of 0.93 and a relative viability ([2]; first compound 0.01 µM) of 0.334. The relative viability ([2]; first compound 0.03162 µM) was 0.406, the relative viability ([2]; first compound 0.1 µM) was 0.357 and the relative viability ([2]; first compound 0.3162 µM) was 0.417. It also gave a relative viability ([2]; first compound 1 µM) of 0.454, a relative viability ([3]; first compound 0.01 µM) of 0.181 and a relative viability ([3]; first compound 0.03162 µM) of 0.217. It also gave a relative viability ([3]; first compound 0.1 µM) of 0.198, a relative viability ([3]; first compound 0.3162 µM) of 0.176 and a relative viability ([3]; first compound 1 µM) of 0.139. For the same compound, the relative viability ([4]; first compound 0.01 µM) was 0.9, the relative viability ([4]; first compound 0.03162 µM) was 0.872 and the relative viability ([4]; first compound 0.1 µM) was 0.878. For the same compound, the relative viability ([4]; first compound 0.3162 µM) was 0.917, the relative viability ([4]; first compound 1 µM) was 0.891 and the relative viability ([5]; first compound 0.01 µM) was 0.501. It also gave a relative viability ([5]; first compound 0.03162 µM) of 0.265, a relative viability ([5]; first compound 0.1 µM) of 0.496 and a relative viability ([5]; first compound 0.3162 µM) of 0.419. It also gave a relative viability ([5]; first compound 1 µM) of 0.563, a relative viability ([6]; first compound 0.01 µM) of 0.194 and a relative viability ([6]; first compound 0.03162 µM) of 0.194. It also gave a relative viability ([6]; first compound 0.3162 µM) of 0.239, a relative viability ([6]; first compound 1 µM) of 0.206 and a relative viability ([7]; first compound 0.01 µM) of 0.712. It also gave a relative viability ([7]; first compound 0.03162 µM) of 0.767, a relative viability ([7]; first compound 0.1 µM) of 0.736 and a relative viability ([7]; first compound 0.3162 µM) of 0.661. For the same compound, the relative viability ([7]; first compound 1 µM) was 0.741, the relative viability ([8]; first compound 0.01 µM) was 1.05 and the relative viability ([8]; first compound 0.03162 µM) was 0.917. The relative viability ([8]; first compound 0.1 µM) was 0.877, the relative viability ([8]; first compound 0.3162 µM) was 1.14 and the relative viability ([8]; first compound 1 µM) was 1.01. The relative viability ([9]; first compound 0.01 µM) was 0.203, the relative viability ([9]; first compound 0.03162 µM) was 0.186 and the relative viability ([9]; first compound 0.1 µM) was 0.173. The relative viability ([9]; first compound 0.3162 µM) was 0.196, the relative viability ([9]; first compound 1 µM) was 0.176 and the relative viability ([10]; first compound 0.01 µM) was 0.198. The relative viability ([10]; first compound 0.03162 µM) was 0.242, the relative viability ([10]; first compound 0.1 µM) was 0.202 and the relative viability ([10]; first compound 0.3162 µM) was 0.271. For the same compound, the relative viability ([10]; first compound 1 µM) was 0.227, the relative viability ([11]; first compound 0.01 µM) was 0.711 and the relative viability ([11]; first compound 0.03162 µM) was 0.694. The relative viability ([11]; first compound 0.1 µM) was 0.689, the relative viability ([11]; first compound 0.3162 µM) was 0.695 and the relative viability ([11]; first compound 1 µM) was 0.634. It also gave a relative viability ([12]; first compound 0.01 µM) of 1.21, a relative viability ([12]; first compound 0.03162 µM) of 1.24 and a relative viability ([12]; first compound 0.1 µM) of 1.14. It also gave a relative viability ([12]; first compound 0.3162 µM) of 1.07, a relative viability ([12]; first compound 1 µM) of 1.11 and a relative viability ([13]; first compound 0.01 µM) of 0.519. It also gave a relative viability ([13]; first compound 0.03162 µM) of 0.552, a relative viability ([13]; first compound 0.1 µM) of 0.515 and a relative viability ([13]; first compound 0.3162 µM) of 0.558. The relative viability ([13]; first compound 1 µM) was 0.544, the relative viability ([14]; first compound 0.01 µM) was 0.689 and the relative viability ([14]; first compound 0.03162 µM) was 0.682. For the same compound, the relative viability ([14]; first compound 0.1 µM) was 0.714, the relative viability ([14]; first compound 0.3162 µM) was 0.582 and the relative viability ([14]; first compound 1 µM) was 0.689. The relative viability ([15]; first compound 0.01 µM) was 0.885, the relative viability ([15]; first compound 0.03162 µM) was 0.991 and the relative viability ([15]; first compound 0.1 µM) was 0.948. It also gave a relative viability ([15]; first compound 0.3162 µM) of 0.909, a relative viability ([15]; first compound 1 µM) of 0.945 and a relative viability ([16]; first compound 0.01 µM) of 0.352. For the same compound, the relative viability ([16]; first compound 0.03162 µM) was 0.318, the relative viability ([16]; first compound 0.1 µM) was 0.33 and the relative viability ([16]; first compound 0.3162 µM) was 0.373. It also gave a relative viability ([16]; first compound 1 µM) of 0.36, a relative viability ([17]; first compound 0.01 µM) of 0.213 and a relative viability ([17]; first compound 0.03162 µM) of 0.285. It also gave a relative viability ([17]; first compound 0.1 µM) of 0.24, a relative viability ([17]; first compound 0.3162 µM) of 0.209 and a relative viability ([17]; first compound 1 µM) of 0.249. The relative viability ([18]; first compound 0.01 µM) was 0.944, the relative viability ([18]; first compound 0.03162 µM) was 0.903 and the relative viability ([18]; first compound 0.1 µM) was 0.898. It also gave a relative viability ([18]; first compound 0.3162 µM) of 0.93, a relative viability ([18]; first compound 1 µM) of 1.01 and a relative viability ([19]; first compound 0.01 µM) of 0.738. For the same compound, the relative viability ([19]; first compound 0.03162 µM) was 0.739, the relative viability ([19]; first compound 0.1 µM) was 0.758 and the relative viability ([19]; first compound 0.3162 µM) was 0.754. For the same compound, the relative viability ([19]; first compound 1 µM) was 0.603, the relative viability ([20]; first compound 0.01 µM) was 0.199 and the relative viability ([20]; first compound 0.03162 µM) was 0.168. For the same compound, the relative viability ([20]; first compound 0.1 µM) was 0.216, the relative viability ([20]; first compound 0.3162 µM) was 0.187 and the relative viability ([20]; first compound 1 µM) was 0.179. For the same compound, the relative viability ([21]; first compound 0.01 µM) was 0.445, the relative viability ([21]; first compound 0.03162 µM) was 0.668 and the relative viability ([21]; first compound 0.1 µM) was 0.654. For the same compound, the relative viability ([21]; first compound 0.3162 µM) was 0.548 and the relative viability ([21]; first compound 1 µM) was 0.744.

Source: the supplement of paper PMC10307832
